# Counter-ions that a name gives are not always drawn.
# How the values were obtained:
# Assay type in all cases: biochemical
# [1] = target: T1, recombinant human TRKA (G667C) (Homo sapiens, UniProt P04629, G667C); experiment: In vitro activity test on mutant TRKA (G667C) (HTRF KinEASE TK); conditions: 5.5 μM ATP, 30 min
# T1 construct: purchased SignalChem
# Experimental: (§1) Biological Test Example 2 In Vitro Activity Test on Mutant TRKA (G595R), TRKA (G667C) and TRKC (G623R)
# (§2) The recombinant human TRKA (G595R), TRKA (G667C) and TRKC (G623R) proteins were purchased from SignalChem. HTRF kinEASE TK kit was purchased from CisbioBioassays. Synergy Neo 2 of Biotek was used to read the plate.
# (§3) The tested compound was subjected to 4-fold serial dilution to reach a final concentration of 1 μM to 0.004 nM (10 concentrates), duplicates for each concentration; and 1% DMSO was present in the detection reaction.
# 0.026 ng/μL TRKA (G667C) kinase, 1 μM TK Substrate-biotin polypeptide substrate, 5.5 μm ATP, 1× enzymatic buffer, 5 mM MgCl2, and 1 mM DTT. The detection plate was White Proxiplate 384-Plus plate (PerkinElmer), and incubated at room temperature for 30 min, the assay volume was 10 μL.
# (§4) 10 μL of detection reagent was added to the plate (containing 0.125 μM SA-XL665 and 5 μL 1×TK-Antibody) and incubated overnight at room temperature, and Synergy Neo 2 was used to read the plate.
# (§5) The value of 665/620 Ratio minus the value of negative control wells without enzyme, then the obtained value was converted according to the following formula into inhibition rate (%)=(1−Ratiotest/Ratiomax)×100%. Ratiomax was a positive control without tested compound, and Ratiotest was the value of each concentration of different compounds. IC50 (nM) data was obtained by 4 parameter curve fitting (see Table 1).
# Recombinant human TRKA = target: T2, Recombinant human TRKA (Homo sapiens, UniProt P04629); experiment: In vitro activity test on TRKA kinase (HTRF KinEASE TK); conditions: 14.68 μM ATP, 40 min
# T2 construct: purchased Carna Biosciences
# Experimental: (§6) Biological Test Example 1 In Vitro Activity Test on TRKA, TRKB, TRKC Kinase
# (§7) Recombinant human TRKA, TRKB, TRKC proteins were purchased from Carna Biosciences. HTRF KinEASE TK kit was purchased from Cisbio Bioassays. Synergy Neo 2 of Biotek was used to read the plate.
# (§8) The tested compound was subjected to 3-fold serial dilution to reach a final concentration of 1 μM to 0.05 nM (10 concentrations), duplicates for each concentration; and the DMSO concentration in the detection reaction was 1%.
# 0.2 ng/μL TRKA protein kinase, 1 μM TK Substrate-biotin polypeptide substrate, 14.68 μM ATP, 1× enzymatic buffer, 5 mM MgCl2, and 1 mM DTT. The detection plate was White Proxiplate384-Plus plate (PerkinElmer), and incubated at room temperature for 40 min, and the assay volume was 10 μL.
# as §4
# as §5, with “The” for “The value of”, “Ratio” for “Ratio minus the value of negative control wells without enzyme, then the obtained value”
# Recombinant human TRKB = target: T3, Recombinant human TRKB (Homo sapiens, UniProt Q16620); experiment: In vitro activity test on TRKB kinase (HTRF KinEASE TK); conditions: 4.77 μM ATP, 50 min
# T3 construct: purchased Carna Biosciences
# Experimental: as §6, §7, §8
# 0.037 ng/μL TRKB protein kinase, 1 μM TK Substrate-biotin polypeptide substrate, 4.77 μM ATP, 1× enzymatic buffer, 5 mM MgCl2, and 1 mM DTT. The detection plate was White Proxiplate 384-Plus plate (PerkinElmer), and incubated at room temperature for 50 min, and the assay volume was 10 μL.
# as §4
# as §5, with “The” for “The value of”, “Ratio” for “Ratio minus the value of negative control wells without enzyme, then the obtained value”
# [2] = target: T4, recombinant human TRKA (G595R) (Homo sapiens, UniProt P04629, G595R); experiment: In vitro activity test on mutant TRKA (G595R) (HTRF KinEASE TK); conditions: 4.5 μM ATP, 30 min
# T4 construct: purchased SignalChem
# Experimental: as §1, §2, §3
# 0.12 ng/μL TRKA (G595R) kinase, 1 μM TK Substrate-biotin polypeptide substrate, 4.5 μM ATP, 1× enzymatic buffer, 5 mM MgCl2, and 1 mm DTT. The detection plate was White Proxiplate384-Plus plate (PerkinElmer), and incubated at room temperature for 30 min, and the assay volume was 10 μL.
# as §4, §5
# Recombinant human TRKC = target: T5, Recombinant human TRKC (Homo sapiens, UniProt Q16288); experiment: In vitro activity test on TRKC kinase (HTRF KinEASE TK); conditions: 25.64 μM ATP, 40 min
# T5 construct: purchased Carna Biosciences
# Experimental: as §6, §7, §8
# 0.037 ng/μL TRKC protein kinase, 1 μM TK Substrate-biotin polypeptide substrate, 25.64 μM ATP, 1× enzymatic buffer, 5 mM MgCl2, and 1 mM DTT. The detection plate was White Proxiplate 384-Plus plate (PerkinElmer), and incubated at room temperature for 40 min, and the assay volume was 10 μL.
# as §4
# as §5, with “The” for “The value of”, “Ratio” for “Ratio minus the value of negative control wells without enzyme, then the obtained value”
# T3 sequence (Q16620 32-822): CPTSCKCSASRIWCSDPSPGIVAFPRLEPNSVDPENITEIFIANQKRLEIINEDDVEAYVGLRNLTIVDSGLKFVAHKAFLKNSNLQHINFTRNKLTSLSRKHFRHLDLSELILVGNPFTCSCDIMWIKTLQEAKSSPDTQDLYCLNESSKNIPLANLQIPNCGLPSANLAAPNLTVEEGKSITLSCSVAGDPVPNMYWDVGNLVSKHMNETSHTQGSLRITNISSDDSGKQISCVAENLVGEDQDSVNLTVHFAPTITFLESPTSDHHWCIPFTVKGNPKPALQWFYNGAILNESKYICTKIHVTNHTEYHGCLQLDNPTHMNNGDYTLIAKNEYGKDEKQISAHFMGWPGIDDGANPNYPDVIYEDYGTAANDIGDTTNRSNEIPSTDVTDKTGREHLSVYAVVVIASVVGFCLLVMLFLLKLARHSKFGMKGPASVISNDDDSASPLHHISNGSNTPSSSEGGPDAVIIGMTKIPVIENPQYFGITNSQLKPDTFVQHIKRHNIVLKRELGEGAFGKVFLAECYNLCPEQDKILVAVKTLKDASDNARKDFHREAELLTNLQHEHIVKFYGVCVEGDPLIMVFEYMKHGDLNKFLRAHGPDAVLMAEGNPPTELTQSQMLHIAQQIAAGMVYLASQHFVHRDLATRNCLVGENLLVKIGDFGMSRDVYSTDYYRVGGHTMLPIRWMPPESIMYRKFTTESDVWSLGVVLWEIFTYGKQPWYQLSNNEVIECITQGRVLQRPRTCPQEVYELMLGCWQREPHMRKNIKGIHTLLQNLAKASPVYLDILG
# T4 sequence (P04629 33-796 G595R): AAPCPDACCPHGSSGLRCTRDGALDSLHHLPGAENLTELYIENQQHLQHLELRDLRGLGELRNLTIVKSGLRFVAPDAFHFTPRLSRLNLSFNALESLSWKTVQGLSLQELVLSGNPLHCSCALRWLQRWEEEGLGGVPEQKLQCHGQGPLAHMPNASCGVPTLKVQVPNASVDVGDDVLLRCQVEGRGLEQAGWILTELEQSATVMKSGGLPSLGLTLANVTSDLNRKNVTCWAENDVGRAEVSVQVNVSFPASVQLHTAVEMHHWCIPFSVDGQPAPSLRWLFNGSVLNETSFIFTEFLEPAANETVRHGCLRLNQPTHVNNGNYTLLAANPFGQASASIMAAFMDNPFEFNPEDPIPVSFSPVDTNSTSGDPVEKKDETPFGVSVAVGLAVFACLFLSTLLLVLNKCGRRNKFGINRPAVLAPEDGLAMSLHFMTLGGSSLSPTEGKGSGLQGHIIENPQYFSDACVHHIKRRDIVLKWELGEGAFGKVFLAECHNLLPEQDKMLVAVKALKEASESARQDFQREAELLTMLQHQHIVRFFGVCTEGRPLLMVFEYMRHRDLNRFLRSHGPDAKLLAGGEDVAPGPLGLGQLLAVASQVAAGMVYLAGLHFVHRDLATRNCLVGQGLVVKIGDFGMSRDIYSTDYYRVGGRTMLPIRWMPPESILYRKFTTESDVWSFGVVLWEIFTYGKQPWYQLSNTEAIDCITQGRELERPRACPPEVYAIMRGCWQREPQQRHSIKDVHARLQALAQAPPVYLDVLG
# T2 sequence (P04629 33-796): as the sequence (P04629 33-796 G595R) above, with R563G counted along it
# T1 sequence (P04629 33-796 G667C): as the sequence (P04629 33-796 G595R) above, with R563G, G635C counted along it
# T5 sequence (Q16288 32-839): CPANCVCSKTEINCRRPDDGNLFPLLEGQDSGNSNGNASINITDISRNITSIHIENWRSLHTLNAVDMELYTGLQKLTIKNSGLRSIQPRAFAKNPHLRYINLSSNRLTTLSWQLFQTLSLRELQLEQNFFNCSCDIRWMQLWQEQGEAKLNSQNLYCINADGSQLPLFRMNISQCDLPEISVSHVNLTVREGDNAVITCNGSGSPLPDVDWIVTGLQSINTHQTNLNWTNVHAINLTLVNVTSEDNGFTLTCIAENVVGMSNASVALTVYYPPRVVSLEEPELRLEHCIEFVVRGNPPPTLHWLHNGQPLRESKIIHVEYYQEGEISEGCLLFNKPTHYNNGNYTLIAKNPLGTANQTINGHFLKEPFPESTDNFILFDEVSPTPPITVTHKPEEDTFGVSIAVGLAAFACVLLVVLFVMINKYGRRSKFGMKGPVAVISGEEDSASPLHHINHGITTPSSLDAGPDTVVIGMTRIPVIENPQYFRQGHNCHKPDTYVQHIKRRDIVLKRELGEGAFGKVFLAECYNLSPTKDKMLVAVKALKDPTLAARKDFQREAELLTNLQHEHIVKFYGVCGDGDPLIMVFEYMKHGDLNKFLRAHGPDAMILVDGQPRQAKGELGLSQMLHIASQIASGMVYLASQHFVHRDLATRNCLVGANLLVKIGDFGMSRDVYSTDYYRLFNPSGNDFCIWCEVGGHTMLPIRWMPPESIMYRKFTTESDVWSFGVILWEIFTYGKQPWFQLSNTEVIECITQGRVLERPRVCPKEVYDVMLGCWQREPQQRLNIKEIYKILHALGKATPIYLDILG
IC50 [1] [nM],IC50 (Recombinant human TRKA) [nM],IC50 (Recombinant human TRKB) [nM],IC50 [2] [nM],IC50 (Recombinant human TRKC) [nM],Compound
< 10,< 1,< 50,< 10,< 1,"Fc1ccc(F)c([C@H]2C[C@H](F)CN2c2ccc3ncnc(-c4cnn(CC5CNC5)c4)c3n2)c1 [Example 59, 4-(1-(azetidin-3-ylmethyl)-1H-pyrazol-4-yl)-6-((2R,4S)-2-(2,5-difluorophenyl)-4-fluoropyrrolidin-1-yl)pyrido[3,2-d]pyrimidine HCOOH salt]"
< 1,< 1,< 1,< 1,< 1,"Fc1ccc(F)c([C@H]2C[C@H](F)CN2c2ccc3ncc(Cl)c(-c4cnn(C5CNC5)c4)c3n2)c1 [Example 22, 8-(1-(azetidine-3-yl)-1H-pyrazol-4-yl)-7-chloro-2-((2R,4S)-2-(2,5-difluorophenyl)-4-fluoropyrrolidin-1-yl)-1,5-naphthyridine]"
< 1,< 1,< 1,< 1,< 1,Fc1ccc(F)c([C@H]2C[C@H](F)CN2c2ccc3ncnc(-c4cnn(C5CCNCC5)c4)c3n2)c1 [Example 46]
< 10,< 1,< 10,< 1,< 10,"COc1ncc(F)cc1[C@H]1CCCN1c1ccc2ncc(Cl)c(-c3cnn(C4CCNCC4)c3)c2n1 [Example 30, (R)-7-chloro-2-(2-(5-fluoro-2-methoxypyridin-3-yl)pyrrolidin-1-yl)-8-(1-(piperidin-4-yl)-1H-pyrazol-4-yl)-1,5-naphthyridine]"
< 10,< 1,< 1,< 1,< 1,"O[C@H]1CCN(c2ncc(-c3ncnc4ccc(N5C[C@@H](F)C[C@@H]5c5cc(F)ccc5F)nc34)cn2)C1 [Example 72, (S)-1-(5-(6-((2R,4S)-2-(2,5-difluorophenyl)-4-fluoropyrrolidin-1-yl)pyrido[3,2-d]primidin-4-yl)pyrimidin-2-yl)pyrrolidin-3-ol]"
< 10,< 1,< 10,< 1,< 1,"Fc1ccc(F)c([C@H]2C[C@H](F)CN2c2ccc3ncc(Cl)c(-c4cnn([C@H]5CCNC5)c4)c3n2)c1 [Example 57, 7-chloro-2-((2R,4S)-2-(2,5-difluorophenyl)-4-fluoropyrrolidin-1-yl)-8-(1-((S)-pyrrolidin-3-yl)-1H-pyrazol-4-yl)-1,5-naphthyridine]"
< 100,< 1,< 10,< 10,< 10,CN(C)S(=O)(=O)n1cc(-c2c(Cl)cnc3ccc(N4C[C@@H](F)C[C@@H]4c4cc(F)ccc4F)nc23)cn1 [Example 31]
< 10,< 1,< 1,< 10,< 10,"O=C(Nc1c(Cl)cnc2ccc(N3C[C@@H](F)C[C@@H]3c3cc(F)ccc3F)nc12)N1CC[C@H](O)C1 [Example 49, (S)-N-(3-Chloro-6-((2R,4S)-2-(2,5-difluorophenyl)-4-fluoropyrrolidin-1-yl)-1,5-naphthyridin-4-yl)-3-hydroxypyrrolidin-1-carboxamide]"
< 10,< 1,< 1,< 1,< 1,"CN1CCC(n2cc(-c3ccnc4ccc(N5C[C@@H](F)C[C@@H]5c5cc(F)ccc5F)nc34)cn2)CC1 [Example 13, 2-((2R,4S)-2-(2,5-difluorophenyl)-4-fluoropyrrolidin-1-yl)-8-(1-(1-methylpiperidin-4-yl)-1H-pyrazol-4-yl)-1,5-naphthyridine]"
< 10,< 10,< 1,< 1,< 1,"CS(=O)(=O)n1cc(-c2c(Cl)cnc3ccc(N4C[C@@H](F)C[C@@H]4c4cc(F)ccc4F)nc23)cn1 [Example 25, 7-chloro-2-((2R,4S)-2-(2,5-difluorophenyl)-4-fluoropyrrolidin-1-yl)-8-(1-(methylsulfonyl)-1H-pyrazol-4-yl)-1,5-naphthyridine]"

# The next lines start with the compound.
Compound,IC50 [1] [nM],IC50 (Recombinant human TRKA) [nM],IC50 (Recombinant human TRKB) [nM],IC50 [2] [nM],IC50 (Recombinant human TRKC) [nM]
"CC1(O)CC(n2cc(-c3c(Cl)cnc4ccc(N5C[C@@H](F)C[C@@H]5c5cc(F)ccc5F)nc34)cn2)C1 (stereo partly drawn) [Example 39, 3-(4-(3-chloro-6-((2R,4S)-2-(2,5-difluorophenyl)-4-fluoropyrrolidin-1-yl)-1,5-naphthyridin-4-yl)-1H-pyrazol-1-yl)-1-methylcyclobutan-1-ol]",< 10,< 1,< 1,< 10,< 1
"O[C@H]1CCN(c2nc(-c3c(F)cnc4ccc(N5C[C@@H](F)C[C@@H]5c5cc(F)ccc5F)nc34)no2)C1 [Example 77, (S)-1-(3-(6-((2R,4S)-2-(2,5-difluorophenyl)-4-fluoropyrrolidin-1-yl)-3-fluoro-1,5-naphthyridin-4-yl)-1,2,4-oxadiazol-5-yl)pyrrolidin-3-ol]",< 50,< 1,< 10,< 1,< 10
"O=C(Nc1ccnc2ccc(N3CCC[C@@H]3c3cc(F)ccc3F)nc12)N1CC[C@H](O)C1 [Example 27, (S)—N-(6-((R)-2-(2,5-difluorophenyl)pyrrolidin-1-yl)-1,5-naphthyridin-4-yl)-3-hydroxypyrrolidin-1-carboxamide]",< 50,< 1,< 1,< 1,< 1
"O=S(=O)(Nc1ccnc2ccc(N3C[C@@H](F)C[C@@H]3c3cc(F)ccc3F)nc12)N1CC[C@H](O)C1 [Example 69, (S)—N-(6-((2R,4S)-2-(2,5-difluorophenyl)-4-fluoropyrrolidin-1-yl)-1,5-naphthyridin-4-yl)-3-hydroxypyrrolidin-1-sulfonamide]",< 10,< 1,< 1,< 1,< 1
"Fc1ccc(F)c([C@H]2C[C@H](F)CN2c2ccc3ncc(Cl)c(-c4cn(C5CCNCC5)nn4)c3n2)c1 [Example 67, 7-chloro-2-((2R,4S)-2-(2,5-difluorophenyl)-4-fluoropyrrolidin-1-yl)-8-(1-(piperidin-4-yl)-2H-1,2,3-triazol-4-yl)-1,5-naphthyridine]",< 10,< 1,< 1,< 10,< 1
"NC(=O)CN1CCC(n2cc(-c3c(F)cnc4ccc(N5C[C@@H](F)C[C@@H]5c5cc(F)ccc5F)nc34)cn2)CC1 [Example 74, 2-(4-(4-(6-((2R,4S)-2-(2,5-difluorophenyl)-4-fluoropyrrolidin-1-yl)-3-fluoro-1,5-naphthyridin-4-yl)-1H-pyrazol-1-yl)piperidin-1-yl)acetamide]",< 10,< 1,< 1,< 10,< 1
CN1CC(n2cc(-c3c(Cl)cnc4ccc(N5C[C@@H](F)C[C@@H]5c5cc(F)ccc5F)nc34)cn2)C1 [Example 23],< 1,< 1,< 1,< 1,< 10

# — patent US20220017512A1 (SHANGHAI ENNOVABIO PHARMACEUTICALS CO., LTD., priority 2018, published 2022)
